Data set [1] relates to MMP-9 (gelatinase B) expressed by E-10 cells. Nature of the data set: MMP protein expression by Western blot of conditioned medium, E-10 cells. Type of data set: cell-based, human. The settings on record: 24 hr, serum-free medium. As to the method:
Two human cancer-derived cell lines were obtained from the American Type Culture Collection (ATCC) in Rockville, Md. The cell lines included COLO 205, a human colon cancer-derived cell line that expresses MMP-2 or gelatinase A, and E-10, a human breast cancer-derived cell line that expresses MMP-9 or gelatinase B.
Cells of each cell line were cultured in 75 cm^2 T-flasks in RPMI-1640 (Gibco) with 10% heat-inactivated fetal bovine serum (FBS) containing 100 units/mL penicillin and 100 μg/mL streptomycin. The cells were fed every two days, and passaged every week. The cells were grown to 80-90% confluence, and then the FBS-containing medium was replaced with a serum-free medium (SFM). CMT-3 (CollaGenex Pharmaceuticals, Inc., Newtown, Pa.) was added in several concentrations to the cells in SFM. Conditioned medium was collected after 24 hr, centrifuged to remove cell debris, and then assayed for MMP protein expression by Western blot using a conventional technique, and scanning the blots with a laser densitometer.

In a further data set the test system is E-10 Cells. As to the kind of experiment: MTS cytotoxicity assay, E-10. To be noted: two days.
Data set [2] deals with activation of MMPs by p-aminophenyl mercuric acetate. As to the kind of experiment: Inhibition of APMA activation of MMPs in processed conditioned medium. Type of data set: biochemical. The procedure: In addition, the ability of doxycycline or CMT-3 to inhibit APMA activation of MMPs was tested. Processed culture-conditioned medium was incubated with the drugs for 1 hr before adding 1 mM APMA, and the incubation was continued thereafter for 2 hr. ^3H-gelatin was then added and the assy was continued for 4 hr. All assays were performed in duplicate tubes, and repeated at least twice.
MMP activity in the culture media was examined at 1 mM and 10 mM CaCl2, with no change in [Zn^2+] in the assay buffer. We employed 1 mM CaCl2, as this concentration is closer to physiological concentration, and 10 mM CaCl2, as it is reported to be the optimum concentration in in vitro assays (Woessner 1991). As is shown in Table 2, both CMT-3 and doxycycline inhibited in vitro activated gelatinases.

Another data set deals with COLO 205 Cells. As to the kind of experiment: MTS cytotoxicity assay, COLO 205. The settings on record: two days.
The next data set in a line: Serum half-life. It counts as in vivo.
A further data set relates to PC-3 tumor cells. Nature of the data set: Alamar Blue viability assay, PC-3. It counts as cell-based, human. From the text: Several cancer cell lines and normal cells were examined in vitro to determine whether tetracycline compounds produce cytotoxic (cell killing) effects. A conventional assay for viability of cultured cells based on redox activity in the cells was employed (Pagé et al. 1993). The assay uses a redox dye Alamar Blue, which is a fluorogenic indicator dye that is converted to a fluorescent red product only when cells are carrying out electron transport activity, a widely accepted criterion of viability.
Cultured cells from three prostate tumor cell lines, LNCAP, DU-145, and PC-3, and normal prostate stromal cells obtained by biopsy of a normal person, were allowed to grow to confluence in multiwell microplates to minimize differences in proliferative activity among the cell types at the time of exposure to the test compound. CMT-3 was added to the wells at concentrations of 10 μM and 20 μM (50 μM also in the case of DU-145). At the start of the experiment, and again at 1, 2, and 3 days, selected wells were incubated with the indicator dye for 3 hr, and the fluorescence was measured on a Cytofluor 2300 fluorescent microplate reader.

The subject of data set [3] is DU-145 and TSU-PR1 prostate cancer cell lines. As to the kind of experiment: Prostate cancer cell viability/proliferation (trypan blue, MTT). Type of data set: cell-based, human. To be noted: Homo sapiens; 48 hr exposure; read-out: 50% inhibition dose (IC50), cell proliferation. From the text: To determine the cytotoxicity of CMTs on prostate tumor cell lines, TSU-PR1 cells (and cells of other tumor cell lines) were exposed to various CMTs or to doxycycline for 24 hr or 48 hr in a complete medium. Cell viability (percent of live cells) was estimated by counting the cells following trypan blue staining. Cellular viability was also estimated by the tetrazolium dye reduction assay (MTT assay) (Lokeshwar et al. 1995b). Due to the aggressive proliferative capacity of cancer cells, it is assumed that viable cells are actively proliferating. Therefore, the measurement of viability was used as an estimate of proliferation. Results are expressed as Mean±SEM from three separate experiments.

SMILES strings stand for the structures. Values after ≈ are worked out from the molar mass of the structure shown. Values joined by “and” are separate entries in the source; they are usually repeats but may differ in a detail not shown here. Identical values can stand only once.

On to `NC(=O)C1=C(O)CC2CC3Cc4cccc(O)c4C(=O)C3=C(O)C2(O)C1=O` (stereo not shown) [CMT-3, 6-demethyl-6-deoxy-4-de(dimethylamino)tetracycline], for which the “Percent Inhibition of MMP Protein Expression” value in data set [1] (E-10, MMP-9, 10 μM) is on record as 45.3%; in data set [1] (E-10, MMP-9, 20 μM), 60.8%. In addition, the percent cytotoxicity in the data set with E-10 Cells (10 μM) is 1.8%; in the data set on E-10 Cells (20 μM), 4.15% and 8.5%; in the data set on COLO 205 Cells (5 μM) it was 25.9%; in the data set with COLO 205 Cells (10 μM) it was 38.9%; in the data set with COLO 205 Cells (20 μM), 37%; in the data set on COLO 205 Cells (50 μM), 86.7%. In the data set with COLO 205 Cells (100 μM), this molecule displayed a percent cytotoxicity of 86.7%. For the same molecule, the “IC50, inhibition of activation of MMPs by APMA” value in data set [2] (10 mM CaCl2) amounted to 1.0 µg/mL. The IC50 in data set [2] (10 mM CaCl2, value in brackets) was 2.2 µM; in data set [3], 2.7 µg/mL (≈ 7.27 µM). This molecule also had a half-life in “Serum half-life” of around 28 h. The cytotoxicity result in the data set on PC-3 tumor cells (24 hr) is given as “about 25%”; in the data set with PC-3 tumor cells (48 hr), around 50%; in the data set on PC-3 tumor cells (72 hr), around 75%.

The values above are taken from patent US6429204B1, “Method of inhibiting cancer growth” (University of Miami, priority 1997, dated 2002).
